Tests used:
homer mRNA = assay: Homer gene expression in brain by in situ hybridization histochemistry; type: in vivo, Sprague-Dawley rats; details: for Homer gene expression induced by treatment with amphetamine: brain frontal cortex, amphetamine plus compound
Protocol: Adult Sprague-Dawley rats (250 g) were maintained in normal environmental conditions with free access to food and water ab libitum. Animals were treated with haloperidol (0.5 and 5 mg/kg) or saline. Naive (non-treated) animals were used as additional controls. Animals were also treated with amphetamine or with amphetamine and MPEP or SIB-1893 as described in example 18b. The animals were sacrificed by decapitation 90 minutes after treatment. Whole brain was rapidly removed from the skull, frozen in dry ice and stored at -30°C. Rat brain sections (15 μm) were obtained at -20°C in a cryostat, mounted in gelatine-coated slides and stored at -30°C until used. Olygonucleotide sequences 40 base length were selected from the homer rat gene sequence published in the GENEBANK (accession number: U92079). Antisense oligonucleotide homerAT ([NT]) was complementary to bases 559 to 599. Antisense oligonucleotide homerBT ([NT]) was complementary to bases 894-934. The corresponding sense oligonucleotides (homerAS and homerBS) were used as control probes. Synthesis was performed in a 395 Applied Biosystems DNA Synthesizer. Purified oligonucleotides were dissolved in DEPC-treated water and stored at -30°C until use. Labelling of synthetic oligoprobes was performed using a deoxynucleotidyl-transferase (TdT) labelling kit (NEP-100, NEN, Bad-Homburg, Germany). Briefly, 5 pmol of probe were incubated (2 hr) with TdT (36 units) in presence of 50 pmol of (^35S] dATP (NEN) and Cl2Co. […] Labelling efficacy was checked by paper chromatography in phosphate buffer system. Homer gene expression in rat brain was studied using in situ hybridization techniques well known in the art. In situ hybridization was performed as previously described (Garcia-Ladona et al., 1994). Briefly, Tissue sections were fixed with paraformaldehyde in PBS and treated (min) with pronase (0.25 mg/l), rapidly washed, dehydrated by consecutive incubation with 60%, 80%, 90% and 100% ethanol, rapidly dried and used for hybridization. […]

[1] = test system: methamphetamine-induced hyperactivity; assay: Methamphetamine antagonism (methamphetamine-induced hyperactivity, measurement of locomotor activity); type: in vivo, Mice (NMRI); details: drug ip 30 min prior to methamphetamine 1 mg/kg po; counts 15 to 60 min after start of measurement
Protocol: Methamphetamine antagonism was tested by recording methamphetamine-induced hyperactivity (measurement of locomotor activity). Mice (NMRI, 21-26 g; female) received drug or vehicle, intraperitoneally, 30 min prior to methamphetamine (MET, 1 mg/kg po). Locomotor activity was recorded in cages equipped with light beams (2 mice/cage/dose) for 1 h, starting 30 min after MET. For calculation of drug effects the counts recorded during the time period of 15 to 60 min after start of the measurement were selected. The control value was calculated as the difference between the counts recorded for the methamphetamine group and the vehicle-treated group during the same time period.

cataleptic syndrome = assay: Cataleptogenic effects (cataleptic syndrome, method of Wirth et al.); type: in vivo, rats, Sprague-Dawley; details: dose 100 mg/kg ip; cataleptic animals / animals per dose; tested 30 to 300 min after administration
Protocol: The cataleptic syndrome was tested according to the method described by Wirth et al. (Arch. Int. Pharmacodyn. Ther. 115, 1-31, 1958). The animals (male rats, Sprague-Dawley bodyweight 210-225 g; n/dose=4) were regarded as cataleptic if they remained in an abnormal posture for more than 15 sec, i.e. one foreleg an a 9-cm-high piece of cork. The animals were tested 30m 60, 120, 180 and 300 min after intraperitoneal administration of the test compound.

Structure (SMILES): O=C(CCCN1CCC(O)(c2ccc(Cl)cc2)CC1)c1ccc(F)cc1 [haloperidol]
- homer mRNA transcripts (in situ hybridization images) (homer mRNA; haloperidol 0.5 and 5 mg/kg vs controls, rat brain, 90 minutes after treatment): higher levels in haloperidol treated animals than in controls

Structure (SMILES): Cc1cccc(C=Cc2ccccc2)n1 [BSF 470213, 2-methyl-6-(2-phenylethenyl)-pyridine]
- Methamphetamine antagonism ED50 [1]: 53.4 mg/kg ip
- Homer gene expression induced by treatment with amphetamine (homer mRNA): reduced
- Cataleptogenic effect [x/n] at dose [mg/kg ip] (cataleptic syndrome): 0/4 at dose 100

Structure (SMILES): Cc1cccc(C#Cc2ccccc2)n1.Cl [BSF 470214, 2-methyl-8-(phenylethynyl)-pyridine hydrochloride]
- Methamphetamine antagonism ED50 [1]: 51.2 mg/kg ip
- Homer gene expression induced by treatment with amphetamine (homer mRNA): reduced
- Cataleptogenic effect [x/n] at dose [mg/kg ip] (cataleptic syndrome): 0/4 at dose 100

— patent EP1900360A1, “Homer a new target of treating psychiatric disorders” (Abbott GmbH & Co. KG, priority 1998, dated 2000)
